From ChEMBL document CHEMBL1201862, “PubChem BioAssay data set” (2004)
Structures can show the parent of a compound that is named as a salt.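 Exposure lasted 48 hours, with cells grown in 96-well plates and compounds tested at five concentrations. GI50 marks 50% less growth.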 Active and inactive are the calls of the source. Cut-off read from the data, not from the text of the source: active = GI50 up to about 1.1 µM and inactive = higher.

How the values were obtained:
Test in all cases: NCI anticancer screen, dose series, 48 h
CAKI-1 = test system: CAKI-1
U-251 = test system: U-251
OVCAR-3 = test system: OVCAR-3
HCT-116 = test system: HCT-116
T47D = test system: T47D
SNB-19 = test system: SNB-19
NCI-H23 = test system: NCI-H23
CCRF-CEM = test system: CCRF-CEM
SK-MEL-28 = test system: SK-MEL-28
MOLT-4 = test system: MOLT-4
KM12 = test system: KM12
MDA-MB-231 = test system: MDA-MB-231
TK-10 = test system: TK-10
HL-60 = test system: HL-60
OVCAR-4 = test system: OVCAR-4
SF-268 = test system: SF-268
OVCAR-8 = test system: OVCAR-8
DU-145 = test system: DU-145
HCC 2998 = test system: HCC 2998
SK-MEL-5 = test system: SK-MEL-5

SMILES	GI50 (CAKI-1)	GI50 (U-251)	GI50 (OVCAR-3)	GI50 (HCT-116)	GI50 (T47D)	GI50 (SNB-19)	GI50 (NCI-H23)	GI50 (CCRF-CEM)	GI50 (SK-MEL-28)	GI50 (MOLT-4)	GI50 (KM12)	GI50 (MDA-MB-231)	GI50 (TK-10)	GI50 (HL-60)	GI50 (OVCAR-4)	GI50 (SF-268)	GI50 (OVCAR-8)	GI50 (DU-145)	GI50 (HCC 2998)	GI50 (SK-MEL-5)
CN(C)Cc1cc(/N=N/c2ccc(Cl)cc2)ccc1O	15.4 µM (inactive)	17.4 µM (inactive)	11.5 µM (inactive)	16.7 µM (inactive)	12.4 µM (inactive)	17.3 µM (inactive)	23 µM (inactive)	17.8 µM (inactive)	16 µM (inactive)	15.2 µM (inactive)	17.3 µM (inactive)	16.1 µM (inactive)	15 µM (inactive)	13.5 µM (inactive)	16.5 µM (inactive)	14.8 µM (inactive)	16.9 µM (inactive)	25.1 µM (inactive)	14.6 µM (inactive)	14.4 µM (inactive)
O=C(CSc1nc2ccc(I)cc2c(=O)n1Cc1ccccc1)NNC(=O)c1ccccc1	2.89 µM (inactive)	28 µM (inactive)	19 µM (inactive)	19.7 µM (inactive)	10.6 µM (inactive)	21.3 µM (inactive)	17.6 µM (inactive)	49.7 µM (inactive)	15.4 µM (inactive)	11.4 µM (inactive)	17.5 µM (inactive)	10.5 µM (inactive)	11.8 µM (inactive)	> 100 µM (inactive)	8.99 µM (inactive)	6.79 µM (inactive)	8.3 µM (inactive)	13.9 µM (inactive)	33.8 µM (inactive)	10.3 µM (inactive)
COc1cc2c(c(OC)c1OC)-c1ccc(OC)c(=O)cc1C(NC(=O)CCCCCNc1ccc(N=[N+]=[N-])cc1[N+](=O)[O-])CC2 (stereo not given)	0.299 µM (active)	< 0.01 µM (active)	< 0.01 µM (active)	< 0.01 µM (active)	20.5 µM (inactive)	< 0.01 µM (active)	< 0.01 µM (active)	< 0.01 µM (active)	< 0.01 µM (active)	< 0.01 µM (active)	< 0.01 µM (active)	< 0.01 µM (active)	0.0426 µM (active)	< 0.01 µM (active)	1.56 µM (inactive)	< 0.01 µM (active)	< 0.01 µM (active)	< 0.01 µM (active)	< 0.01 µM (active)	< 0.01 µM (active)
COc1ccc([S+]([O-])Cc2cc(OC)c(OC)c(OC)c2)cc1 (stereo not given)	56.9 µM (inactive)	60.3 µM (inactive)	57.8 µM (inactive)	40.4 µM (inactive)	> 100 µM (inactive)	69.7 µM (inactive)	76.2 µM (inactive)	41.3 µM (inactive)	95.3 µM (inactive)	27 µM (inactive)	40.8 µM (inactive)	84.5 µM (inactive)	> 100 µM (inactive)	> 10 µM (inactive)	> 100 µM (inactive)	97.5 µM (inactive)	62.5 µM (inactive)	> 100 µM (inactive)	54.3 µM (inactive)	29.6 µM (inactive)
COC(=O)/C=C\C(C#N)(C#N)/N=C/c1ccccc1	2.86 µM (inactive)	17.7 µM (inactive)	2.11 µM (inactive)	1.77 µM (inactive)	1.72 µM (inactive)	23.9 µM (inactive)	7.35 µM (inactive)	0.337 µM (active)	6 µM (inactive)	0.953 µM (active)	17.5 µM (inactive)	15.6 µM (inactive)	2.25 µM (inactive)	2.25 µM (inactive)	4.22 µM (inactive)	4.95 µM (inactive)	1.91 µM (inactive)	17.1 µM (inactive)	19.4 µM (inactive)	13.5 µM (inactive)
O=C(O)CCCc1ccc(N(CCCl)CCCl)cc1 [CHLORAMBUCIL]	17.3 µM (inactive)	42.8 µM (inactive)	111 µM (inactive)	106 µM (inactive)	55 µM (inactive)	96.2 µM (inactive)	26.6 µM (inactive)	6.31 µM (inactive)	106 µM (inactive)	5.78 µM (inactive)	143 µM (inactive)	156 µM (inactive)	171 µM (inactive)	8.22 µM (inactive)	136 µM (inactive)	34.9 µM (inactive)	83.2 µM (inactive)	61.4 µM (inactive)	103 µM (inactive)	88.5 µM (inactive)
COc1cc2cc3c4cc(OC)c(OC)cc4cc[n+]3c(C)c2cc1OC [CORALYNE]	67.1 µM (inactive)	9.59 µM (inactive)	> 100 µM (inactive)	> 100 µM (inactive)	> 100 µM (inactive)	13.4 µM (inactive)	> 100 µM (inactive)	> 100 µM (inactive)	> 100 µM (inactive)	> 100 µM (inactive)	88.7 µM (inactive)	> 100 µM (inactive)	> 100 µM (inactive)	> 100 µM (inactive)	67.5 µM (inactive)	1.96 µM (inactive)	> 100 µM (inactive)	> 100 µM (inactive)	42.7 µM (inactive)	72.1 µM (inactive)
CN[C@@H](C)[C@@H](O)c1ccccc1 [PSEUDOEPHEDRINE HYDROCHLORIDE]	> 100 µM (inactive)	> 100 µM (inactive)	> 10 µM (inactive)	> 100 µM (inactive)	> 100 µM (inactive)	> 100 µM (inactive)	> 100 µM (inactive)	> 10 µM (inactive)	> 100 µM (inactive)	> 100 µM (inactive)	> 100 µM (inactive)	> 10 µM (inactive)	> 100 µM (inactive)	> 100 µM (inactive)	> 100 µM (inactive)	> 100 µM (inactive)	> 100 µM (inactive)	> 100 µM (inactive)	> 100 µM (inactive)	> 100 µM (inactive)
